Experimental data from the NIST ThermoML archive (doi:10.1016/j.jct.2017.07.008).
Several values for one entry are separate records, joined by “and”; a condition that tells them apart may be missing. Equal entries are not always repeated.

Details: for surface tension liquid-gas: Drop volume; for viscosity / speed of sound / mass density: Liquid; for viscosity: Capillary tube (Ostwald / Ubbelohde) method; for speed of sound: Frequency=3 MHz, Single path-length method; for mass density: Vibrating tube method

OCc1cccs1 [2-thiophenemethanol]
Details | surface tension liquid-gas [mN/m]
283.15 K | 45.2
285.65 K | 44.93
288.15 K | 44.61
290.65 K | 44.39
293.15 K | 44.13
295.65 K | 43.83
298.15 K | 43.56
300.65 K | 43.29
303.15 K | 43.04
305.65 K | 42.78
308.15 K | 42.54
310.65 K | 42.27
313.15 K | 41.96

Details | mass density | speed of sound [m/s] | viscosity [mPa·s]
283.15 K, 100 kPa | 1215.5 kg/m3 | 1545.7 | 13.16
283.15 K, 2000 kPa | 1216.47 kg/m3 | – | –
283.15 K, 5000 kPa | 1217.99 kg/m3 | – | –
283.15 K, 7000 kPa | 1218.98 kg/m3 | – | –
283.15 K, 10000 kPa | 1220.46 kg/m3 | – | –
283.15 K, 15000 kPa | 1222.87 kg/m3 | – | –
283.15 K, 20000 kPa | 1225.22 kg/m3 | – | –
283.15 K, 25000 kPa | 1227.52 kg/m3 | – | –
283.15 K, 30000 kPa | 1229.77 kg/m3 | – | –
283.15 K, 35000 kPa | 1231.96 kg/m3 | – | –
283.15 K, 40000 kPa | 1234.11 kg/m3 | – | –
283.15 K, 45000 kPa | 1236.21 kg/m3 | – | –
283.15 K, 50000 kPa | 1238.27 kg/m3 | – | –
283.15 K, 55000 kPa | 1240.29 kg/m3 | – | –
283.15 K, 60000 kPa | 1242.27 kg/m3 | – | –
283.15 K, 65000 kPa | 1244.21 kg/m3 | – | –
285.65 K, 100 kPa | 1213.3 kg/m3 | 1538.2 | 11.81
288.15 K, 100 kPa | 1211.11 kg/m3 and 1211.08 kg/m3 | 1530.8 | 10.6
288.15 K, 2000 kPa | 1212.1 kg/m3 | – | –
288.15 K, 5000 kPa | 1213.64 kg/m3 | – | –
288.15 K, 7000 kPa | 1214.66 kg/m3 | – | –
288.15 K, 10000 kPa | 1216.16 kg/m3 | – | –
288.15 K, 15000 kPa | 1218.62 kg/m3 | – | –
288.15 K, 20000 kPa | 1221.01 kg/m3 | – | –
288.15 K, 25000 kPa | 1223.35 kg/m3 | – | –
288.15 K, 30000 kPa | 1225.64 kg/m3 | – | –
288.15 K, 35000 kPa | 1227.87 kg/m3 | – | –
288.15 K, 40000 kPa | 1230.06 kg/m3 | – | –
288.15 K, 45000 kPa | 1232.19 kg/m3 | – | –
288.15 K, 50000 kPa | 1234.29 kg/m3 | – | –
288.15 K, 55000 kPa | 1236.34 kg/m3 | – | –
288.15 K, 60000 kPa | 1238.35 kg/m3 | – | –
288.15 K, 65000 kPa | 1240.32 kg/m3 | – | –
290.65 K, 100 kPa | 1208.87 kg/m3 | 1523.4 | 9.578
293.15 K, 100 kPa | 1206.69 kg/m3 and 1206.66 kg/m3 | 1516 | 8.703
293.15 K, 2000 kPa | 1207.7 kg/m3 | – | –
293.15 K, 5000 kPa | 1209.28 kg/m3 | – | –
293.15 K, 7000 kPa | 1210.32 kg/m3 | – | –
293.15 K, 10000 kPa | 1211.85 kg/m3 | – | –
293.15 K, 15000 kPa | 1214.36 kg/m3 | – | –
293.15 K, 20000 kPa | 1216.8 kg/m3 | – | –
293.15 K, 25000 kPa | 1219.18 kg/m3 | – | –
293.15 K, 30000 kPa | 1221.5 kg/m3 | – | –
293.15 K, 35000 kPa | 1223.78 kg/m3 | – | –
293.15 K, 40000 kPa | 1226 kg/m3 | – | –
293.15 K, 45000 kPa | 1228.17 kg/m3 | – | –
293.15 K, 50000 kPa | 1230.29 kg/m3 | – | –
293.15 K, 55000 kPa | 1232.38 kg/m3 | – | –
293.15 K, 60000 kPa | 1234.42 kg/m3 | – | –
293.15 K, 65000 kPa | 1236.41 kg/m3 | – | –
295.65 K, 100 kPa | 1204.45 kg/m3 | 1508.6 | 7.913
298.15 K, 100 kPa | 1202.27 kg/m3 and 1202.23 kg/m3 | 1501.2 | 7.23
298.15 K, 2000 kPa | 1203.3 kg/m3 | – | –
298.15 K, 5000 kPa | 1204.91 kg/m3 | – | –
298.15 K, 7000 kPa | 1205.97 kg/m3 | – | –
298.15 K, 10000 kPa | 1207.53 kg/m3 | – | –
298.15 K, 15000 kPa | 1210.08 kg/m3 | – | –
298.15 K, 20000 kPa | 1212.57 kg/m3 | – | –
298.15 K, 25000 kPa | 1215 kg/m3 | – | –
298.15 K, 30000 kPa | 1217.36 kg/m3 | – | –
298.15 K, 35000 kPa | 1219.67 kg/m3 | – | –
298.15 K, 40000 kPa | 1221.93 kg/m3 | – | –
298.15 K, 45000 kPa | 1224.14 kg/m3 | – | –
298.15 K, 50000 kPa | 1226.3 kg/m3 | – | –
298.15 K, 55000 kPa | 1228.41 kg/m3 | – | –
298.15 K, 60000 kPa | 1230.48 kg/m3 | – | –
298.15 K, 65000 kPa | 1232.51 kg/m3 | – | –
300.65 K, 100 kPa | 1200.01 kg/m3 | 1493.9 | 6.607
303.15 K, 100 kPa | 1197.82 kg/m3 and 1197.79 kg/m3 | 1486.6 | 6.079
303.15 K, 2000 kPa | 1198.88 kg/m3 | – | –
303.15 K, 5000 kPa | 1200.52 kg/m3 | – | –
303.15 K, 7000 kPa | 1201.6 kg/m3 | – | –
303.15 K, 10000 kPa | 1203.2 kg/m3 | – | –
303.15 K, 15000 kPa | 1205.8 kg/m3 | – | –
303.15 K, 20000 kPa | 1208.33 kg/m3 | – | –
303.15 K, 25000 kPa | 1210.8 kg/m3 | – | –
303.15 K, 30000 kPa | 1213.21 kg/m3 | – | –
303.15 K, 35000 kPa | 1215.57 kg/m3 | – | –
303.15 K, 40000 kPa | 1217.86 kg/m3 | – | –
303.15 K, 45000 kPa | 1220.11 kg/m3 | – | –
303.15 K, 50000 kPa | 1222.3 kg/m3 | – | –
303.15 K, 55000 kPa | 1224.45 kg/m3 | – | –
303.15 K, 60000 kPa | 1226.55 kg/m3 | – | –
303.15 K, 65000 kPa | 1228.61 kg/m3 | – | –
305.65 K, 100 kPa | 1195.57 kg/m3 | 1479.3 | 5.609
308.15 K, 100 kPa | 1193.36 kg/m3 and 1193.34 kg/m3 | 1472 | 5.18
308.15 K, 2000 kPa | 1194.44 kg/m3 | – | –
308.15 K, 5000 kPa | 1196.12 kg/m3 | – | –
308.15 K, 7000 kPa | 1197.22 kg/m3 | – | –
308.15 K, 10000 kPa | 1198.85 kg/m3 | – | –
308.15 K, 15000 kPa | 1201.5 kg/m3 | – | –
308.15 K, 20000 kPa | 1204.09 kg/m3 | – | –
308.15 K, 25000 kPa | 1206.61 kg/m3 | – | –
308.15 K, 30000 kPa | 1209.06 kg/m3 | – | –
308.15 K, 35000 kPa | 1211.45 kg/m3 | – | –
308.15 K, 40000 kPa | 1213.79 kg/m3 | – | –
308.15 K, 45000 kPa | 1216.07 kg/m3 | – | –
308.15 K, 50000 kPa | 1218.3 kg/m3 | – | –
308.15 K, 55000 kPa | 1220.48 kg/m3 | – | –
308.15 K, 60000 kPa | 1222.62 kg/m3 | – | –
308.15 K, 65000 kPa | 1224.71 kg/m3 | – | –
310.65 K, 100 kPa | 1191.11 kg/m3 | 1464.8 | 4.795
313.15 K, 100 kPa | 1188.89 kg/m3 and 1188.87 kg/m3 | 1457.6 | 4.455
313.15 K, 2000 kPa | 1189.99 kg/m3 | – | –
313.15 K, 5000 kPa | 1191.7 kg/m3 | – | –
313.15 K, 7000 kPa | 1192.83 kg/m3 | – | –
313.15 K, 10000 kPa | 1194.49 kg/m3 | – | –
313.15 K, 15000 kPa | 1197.2 kg/m3 | – | –
313.15 K, 20000 kPa | 1199.83 kg/m3 | – | –
313.15 K, 25000 kPa | 1202.4 kg/m3 | – | –
313.15 K, 30000 kPa | 1204.9 kg/m3 | – | –
313.15 K, 35000 kPa | 1207.33 kg/m3 | – | –
313.15 K, 40000 kPa | 1209.71 kg/m3 | – | –
313.15 K, 45000 kPa | 1212.03 kg/m3 | – | –
313.15 K, 50000 kPa | 1214.3 kg/m3 | – | –
